What was measured:
[1] = target: T1, pyruvate decarboxylase (PDC) (Saccharomyces cerevisiae, UniProt P06169); experiment: Inhibition of PDC (ADH coupled assay); type: biochemical, S. cerevisiae
T1 construct: purchased Sigma Aldrich P9474; host or cells: baker's yeast
Method: Reaction conditions were optimized from a previously reported assay.[38] Briefly, reaction mixtures containing MES (100 mM, pH 6.2), MgCl2 (2 mM), ThDP (5 mM), PDC (0.06 U/mL), ADH (16 U/mL), NADH (170 μM), and 1 (0 or 200 μM) were preincubated at 25 °C for 5 min. Enzymatic reactions were initiated via the addition of 20 μL of 10x pyruvate (final 1mM), or water for background controls, for a final well volume of 200 μL. Immediately following initiation, NADH depletion was monitored at 340 nm at 25 °C for 7 min with a 14 second time interval. Initial velocities of acetaldehyde formation were measured and arithmetically corrected for background rates. Standard errors of reported % inhibition values were determined from 3 replicates. pH controls were conducted with phosphate buffer (pH 7 and 8); background subtraction was not performed on these samples. Reported standard errors of the mean for Kis are calculated from three replicates.

[2] = target: T2, WT EcDXPS (Escherichia coli, UniProt P77488); experiment: Anaerobic apparent Ki, DXPS-IspC coupled assay; type: biochemical, E. coli
T2 construct: made in house
Method: (§1) Inhibitory activity of compounds against DXPS were monitored via a continuous spectrophotometric coupled assay with DXPS and IspC as previously described.[41],[42] Briefly, Reaction mixtures containing HEPES (100 mM, pH 8.0), MgCl2 (2 mM), NaCl (5 mM), ThDP (1 mM), BSA (1 mg/mL), DXPS (125–500 nM), IspC (1.7 μM), NADPH (160 μM), DMSO (5%, v/v), and inhibitor (0–200 μM) were preincubated at 25 °C (or chamber temperature 25–30 °C) for 5 min. Enzymatic reactions were initiated via the addition of 20 μL of a 10x substrate mix for a final well volume of 200 μL. Reactions were performed in triplicate unless otherwise noted. See the following sections for details and modifications.
Reaction components were brought into the anaerobic chamber and allowed to deoxygenate for ~2 hours. WT EcDXPS was used at 125 nM. When varying pyruvate (0–500 μM), GAP was maintained at 50 μM. When varying GAP (0–500 μM), pyruvate was maintained at 500 μM. Reactions were incubated and initiated as described above. Immediately following initiation, NADPH depletion was monitored at 340 nm at chamber temperature (25–30 °C) for 5 min with a ~17 second time interval. Initial velocities of DXP formation were determined as above, plotted vs. substrate concentration, and the data were fit to either equation 2, or 3 based on the calculated α value and goodness of fit in GraphPad Prism. Reported standard errors of the mean for Kis are calculated from three replicates.

[3] = target: T3, H431A DXPS (Escherichia coli, UniProt P77488, H431A); experiment: DXPS-IspC coupled assay, H431A variant; type: biochemical, E. coli
T3 construct: made in house
Method: (§2) To determine the role of active site network residues in the activity of oximes, inhibitory activity of 1 was assessed against EcD427A, EcH431A, and EcR99A by the DXPS-IspC coupled assay[41],[42] (Fig 4B, S3, Table S1). Ki determination was performed by varying [pyruvate] in order to assess the impact of residue substitutions on the uncompetitive mode of inhibition. […] (8.7 ± 1.2 μM, Fig S3, Table S1).
as §1
(§3) When varying pyruvate (0–500 μM), GAP was maintained at 50 μM (3 mM for R478A). When varying GAP (0–500 μM), pyruvate was maintained at 500 μM. The following [DXPS] were used when varying 1: WT EcDXPS, R478A, H431A, D427A (200 nM), R99A (500 nM), WT DrDXPS, WT PaDXPS (150 nM). Analogs 3 and 4 were tested using WT EcDXPS (150 nM). Reactions were incubated and initiated as described above. Immediately following initiation, NADPH depletion was monitored at 340 nm at 25 °C for 7–10 min with a 14–20 second time interval. Initial velocities of DXP formation were determined from the linear portion of the NADPH decay. Initial velocities were arithmetically corrected for background for compound 4. Initial velocities were plotted vs. substrate concentration, and the data were fit to equation 1 (mixed model), 2 (competitive), or 3 (uncompetitive) based on the calculated α value and goodness of fit in GraphPad Prism. Reported standard errors of the mean for Kis are calculated from three replicates.

[4] = NMR detection of redox state of 1; type: physicochemical
Method: NMR experiments were performed as previously described[16],[24] with the following modifications. Experiments were performed aerobically unless otherwise noted. Anaerobic experiments were performed in the anaerobic chamber up to the point of transfer to NMR tubes which were capped with rubber septa to exclude oxygen once removed from the chamber. […] Solutions were also prepared aerobically in the presence of ascorbate (5 mM) and CAT (0.25 mg/mL). Oxime 1 (500 μM) was then added and solutions were incubated at 4 °C for 20 min. After incubation, 600 μL of each solution were transferred to labeled NMR tubes. 1D ^1H-NMR and 1D ^1H detected H{^13C} and H3{^13C} spectra via a proton multiplicity filter, which selects for ^13C nuclei attached to an odd number of protons, were acquired on a Bruker Avance 600 MHz or a Bruker Avance NEO 600 MHz spectrometer (HEPES anaerobic and Tris anaerobic) equipped with a TCI cryogenic probe equipped with z-gradients with a cryo-cooled ^13C preamplifier, resulting in high sensitivity for ^13C detection. Spectra were acquired at 600 MHz (^1H) and 150 MHz (^13C), at 25 °C utilizing a 90° ^1H excitation pulse (optimized for maximum signal-to-noise per unit time), 128 scans/FID (^1H-NMR), 200 ms acquisition time/FID, and a 3s relaxation day between successive scans, or 64 scans/FID (^1H detected H{^13C} and H3{^13C}), 200 ms acquisition time/FID, and a 5s relaxation day between successive scans.

[5] = target: T4, R99A DXPS (Escherichia coli, UniProt P77488, R99A); experiment: DXPS-IspC coupled assay, R99A variant; type: biochemical, E. coli
T4 construct: made in house
Method: as §2, §1, §3

In the case of ON=Cc1cc(O)c(O)cc1O [compound 1, 2,4,5-trihydroxybenzaldoxime], the “Inhibition of PDC at pH 7 or 8” value ([1]; 200 μM, phosphate buffer pH 7 and 8) is reported as “not observed”, the “%Inhibition at 200 μM 1” value ([1]; PDC, MES pH 6.2, 200 μM) is reported as ~ 14% and the inhibition at 200 µM ([1]; pH 6.2, PDC, MES pH 6.2, 200 μM, read-out: %Inhibition at 200 μM 1) is reported as 14.2 ± 2.3%. For the same molecule, the “Ki (+O2)/ Ki (-O2)” value ([2]; - O2) was ~ 10, the “MOI varying D-GAP” value ([2]; anaerobic, WT EcDXPS) was “competitive” and the MOI varying pyruvate ([2]; anaerobic, WT EcDXPS) was “uncompetitive”. For the same molecule, the Ki [3] was 1.1 ± 0.1 µM, the MOI varying pyruvate ([3]; EcH431A) was “uncompetitive” and the “fold lower Ki relative to WT” value ([3]; H431A, vary pyruvate) was ~ 4 fold. For the same molecule, the “redox state by 1H-NMR” value ([4]; 500 μM, HEPES 50 mM pH 8, aerobic) was “partially”, the “redox state by 1H-NMR” value ([4]; 500 μM, HEPES pH 8, aerobic, ascorbate 5 mM) was “reduced” and the “redox state by 1H-NMR” value ([4]; 500 μM, HEPES pH 8, aerobic, catalase 0.25 mg/mL) was “mostly oxidized”. For the same molecule, the “redox state by 1H-NMR” value ([4]; 500 μM, Tris 50 mM pH 8, aerobic) was “mostly”, the “redox state by 1H-NMR” value ([4]; 500 μM, acidic pH (MES pH 6.2), aerobic) was “mostly reduced” and the “redox state by 1H-NMR” value ([4]; 500 μM, neutral and basic pH (phosphate pH 7, CHES pH 9), aerobic) was “oxidized”. The “redox state by 1H-NMR” value ([4]; 12.5 mM, HEPES 100 mM pH 8, aerobic) was “primarily in the reduced state”, the “redox state by 1H-NMR” value ([4]; anaerobic conditions) was “primarily in its reduced form” and the “MOI varying D-GAP” value ([5]; EcR99A) was “competitive”. For the same molecule, the MOI varying pyruvate ([5]; EcR99A) was “uncompetitive”, the Ki ([5]; Ki Vary Pyruvate, R99A, pyruvate 0–500 μM) was 30 ± 1 µM and the Ki ([5]; Ki varying [D-GAP], R99A, GAP 0–500 μM, pyruvate 500 μM) was 8.7 ± 1.2 µM. The “Ki/Ki^wt” value ([5]; R99A, vary pyruvate, fold reduction in potency vs WT) was ~ 6 and the “fold reduction in potency relative to WT” value ([5]; R99A, varying [D-GAP]) was 4 fold.

Source: publication doi:10.1101/2025.03.03.641193, “Trihydroxybenzaldoximes are redox cycling inhibitors of ThDP-dependent DXP synthase” (bioRxiv, 2025)
